Test results: patent publication US12214017B2, “GLP-1 compositions and uses thereof” (Novo Nordisk A/S, priority 2017, dated 2025)

Experiment: Assay (III): purity of liraglutide by HPLC (chemical stability)
Type: physicochemical
Details: composition without phenol, compared with phenol-containing compositions
Method: Assay (III): Determination of Purity of Liraglutide
Determination of purity was performed using high performance liquid chromatography (HPLC) using a Waters XTerra™ MS C18 column with a gradient elution of two mobile phases, where one mobile phase was an aqueous ammonium phosphate buffer (pH 8)/acetonitrile mixture and the other mobile phase was acetonitrile in water. Detection was performed at 215 nm.
The results in Table 5 were obtained as follows: Compositions comprising liraglutide were tested. The tested compositions contained liraglutide (as specified in Table 4), mannitol (36.9 mg/ml), disodium hydrogen phosphate (1.42 mg/ml), and optionally phenol (as specified in Table 4), at pH 7.4 in an aqueous solution. These compositions were prepared as described herein in the section General Methods of Preparation. Chemical stability as expressed by purity was determined by Assay (III) described herein at start of the experiment and after storage at 25° C. or at 37° C.

**Q.** With `CCCCCCCCCCCCCCCC(=O)N[C@@H](CCC(=O)NCCCC[C@H](NC(=O)[C@H](C)NC(=O)[C@H](C)NC(=O)[C@H](CCC(N)=O)NC(=O)CNC(=O)[C@H](CCC(=O)O)NC(=O)[C@H](CC(C)C)NC(=O)[C@H](Cc1ccc(O)cc1)NC(=O)[C@H](CO)NC(=O)[C@H](CO)NC(=O)[C@@H](NC(=O)[C@H](CC(=O)O)NC(=O)[C@H](CO)NC(=O)[C@@H](NC(=O)[C@H](Cc1ccccc1)NC(=O)[C@@H](NC(=O)CNC(=O)[C@H](CCC(=O)O)NC(=O)[C@H](C)NC(=O)[C@@H](N)Cc1cnc[nH]1)[C@@H](C)O)[C@@H](C)O)C(C)C)C(=O)N[C@@H](CCC(=O)O)C(=O)N[C@@H](Cc1ccccc1)C(=O)N[C@H](C(=O)N[C@@H](C)C(=O)N[C@@H](Cc1c[nH]c2ccccc12)C(=O)N[C@@H](CC(C)C)C(=O)N[C@H](C(=O)N[C@@H](CCCNC(=N)N)C(=O)NCC(=O)N[C@@H](CCCNC(=N)N)C(=O)NCC(=O)O)C(C)C)[C@@H](C)CC)C(=O)O` [liraglutide] as the compound, how does the “Chemical stability of liraglutide (in words)” value read?
**A.** less chemically stable
